In patent US7923440B2, “Method of treating or preventing immune mediated disorders and pharmaceutical formulation for use therein” (Pantarhei Bioscience B.V., priority 2002, dated 2011):
Where two headings read alike, the source gives them in different places.

What was measured:
[1] = biological target: T1, rat uterine nuclear estrogen receptor (Rattus norvegicus, UniProt P06211); conditions: Martucci et al. 1976; cited from earlier work
T1 construct: rat uterine nuclear estrogen receptor; host or cells: rat uterus, nuclear fraction
T1 sequence (P06211 1-600): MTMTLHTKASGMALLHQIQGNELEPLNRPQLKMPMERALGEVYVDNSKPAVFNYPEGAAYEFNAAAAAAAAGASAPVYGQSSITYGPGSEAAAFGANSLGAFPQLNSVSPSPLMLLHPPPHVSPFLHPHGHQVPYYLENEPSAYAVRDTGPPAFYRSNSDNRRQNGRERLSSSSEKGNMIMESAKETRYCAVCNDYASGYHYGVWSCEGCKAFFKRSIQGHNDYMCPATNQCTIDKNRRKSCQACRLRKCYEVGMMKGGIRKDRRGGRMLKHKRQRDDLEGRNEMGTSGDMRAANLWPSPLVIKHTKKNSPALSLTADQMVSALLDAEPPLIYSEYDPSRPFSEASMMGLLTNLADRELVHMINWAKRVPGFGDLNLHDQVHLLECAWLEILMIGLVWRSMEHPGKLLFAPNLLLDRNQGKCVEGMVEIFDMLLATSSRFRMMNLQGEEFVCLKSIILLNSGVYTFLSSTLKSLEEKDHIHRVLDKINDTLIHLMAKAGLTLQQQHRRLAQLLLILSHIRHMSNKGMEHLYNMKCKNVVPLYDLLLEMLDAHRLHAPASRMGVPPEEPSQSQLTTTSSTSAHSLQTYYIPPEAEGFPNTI

[2] = system: ovariectomized adult rats; test: Vaginal cornification bioassay in ovariectomized rats; format: in vivo, rat; conditions: for Number of Rats Exhibiting Estrogenic Response/Number of Rats Treated: sc, Day 7
Excerpt: Uterine weight increase in the rat is more commonly used as a measure of estrogenicity. […] In the early 1920s it was discovered that follicular fluid from the pig ovary contained a factor(s) that caused cornification/keratinization of the vaginal epithelium in the rat (Allen and Doisy, 1923, JAMA, 81, 819-821; Allen and Doisy, 1924, Am. J. Physiol., 69, 577-588). The so-called vaginal cornification response in rats subsequently provided a bioassay for testing estrogenicity. Vaginal epithelial cornification/keratinization in ovariectomized rats can be produced only by compounds considered to be true estrogens (Jones et al, 1973, Fert. Steril. 24, 284-291). […] Adult intact female CD rats were ovariectomized to induce estrogen deficiency. […] Castrate vaginal smears are indicative that complete ovariectomy was achieved. Treatment commenced following completion of the 7 days of smearing (day 0=first day of dosing). Animals were dosed, once daily for 7 consecutive days. Daily vaginal lavages continued to be obtained for 7 days after dosing was initiated in order to detect vaginal cornification, as an indication of an estrogenic response. A drop of vaginal washings was placed on a glass slide and examined by light microscopy to detect the presence or absence of cornified epithelial cells. Vaginal lavages were obtained prior to dosing on days 0-6 and prior to necropsy on day 7. The vaginal cornification bioassay was performed in order to determine the estrogenic profile of E4 when given subcutaneously (sc) to ovariectomized adult rats. E2 was used as a positive control. The vehicle (10% ethanol/sesame oil) served as the negative control. Steroids were dissolved in absolute ethanol and then brought to the final concentration with sesame oil (10% ethanol in sesame oil). […] The vaginal cornification bioassay was performed in order to determine the estrogenic profile of E4 when given orally (po) to ovariectomized adult rats. EE was used as a positive control. The vehicle (10% ethanol/sesame oil) served as the negative control. […]

[3] = system: immature rat uterus; conditions: subcutaneously administered, cited from earlier work
[4] = intravenous, two adult women, Fishman et al. 1970; cited from earlier work

C[C@]12CC[C@@H]3c4ccc(O)cc4CC[C@H]3[C@@H]1[C@@H](O)[C@@H](O)[C@@H]2O [E4, 1,3,5 (10)-estratrien-3,15α,16α,17β-tetrol]
relative binding affinity, of 17β-estradiol (100%) [1]: 0.3% | onset of vaginal cornification, po versus sc ([2]; amount of animals responding at days 1-3, even at low doses (e.g. 0.1 mg/kg/day)): faster in po-treated than in sc-treated animals | Number of Rats Exhibiting Estrogenic Response/Number of Rats Treated ([2]; 1.0 mg/kg/day, 1 mg/kg/day): all rats | Number of Rats Exhibiting Estrogenic Response/Number of Rats Treated ([2]; 3.0 mg/kg/day, 3 mg/kg/day): all rats | uterotrophic activity ([3]; Holinka et al. 1979): very weak uterotrophic activity | uterotrophic activity ([3]; Holinka et al. 1980): very weak uterotrophic activity | excretion [4]: rapidly and completely excreted in urine as the glucosiduronate | metabolism [4]: virtually no metabolism except for conjugation took place
